From ChEMBL document CHEMBL6083275, “Discovery and evaluation of HW161023 as a potent and orally active AAK1 inhibitor” (Bioorg Med Chem Lett, 2024) come the findings set out here.

Data set [1] is described as follows: Protein binding in human plasma assessed as unbound fraction. Format: ADME, cell-free.
Data set [2] can be described thus: Apparent volume of distribution in rat at 1 mg/kg, iv. The conditions noted are these: in vivo, read-out: Vz. It is filed as ADME, organism-based.
The target of data set [3] is MAP kinase-interacting serine/threonine-protein kinase 2 (Homo sapiens) (UniProt Q9HBH9). Nature of the data set: Inhibition of wildtype MNK2 (unknown origin) at 1 uM relative to control.
Data set [4] in a line: AUC (0 to 24 hrs) in rat at 10 mg/kg, po. It is filed as ADME, organism-based. The conditions noted are these: in vivo.
Data set [5] in a line: Protein binding in mouse plasma assessed as unbound fraction. Format: ADME, cell-free.
The nature of data set [6]: Tmax in rat at 10 mg/kg, po. Format: ADME, organism-based. The conditions noted are these: in vivo.
Data set [7] is described as follows: Oral bioavailability in rat at 10 mg/kg. The conditions noted are these: in vivo. Format: ADME, organism-based.
Data set [8] can be described thus: Metabolic stability in dog liver microsomes assessed as half-life. It is filed as ADME, Canis lupus familiaris, Microsome. (Liver microsomes are vesicles of endoplasmic reticulum, rich in cytochrome P450 enzymes.)
Data set [9] in a line: Metabolic stability in mouse liver microsomes assessed as half-life. Format: ADME, Microsome.
Data set [10] deals with BMP-2-inducible protein kinase (Homo sapiens) (UniProt Q9NSY1). In words: Inhibition of wildtype BIKE (unknown origin) at 1 uM relative to control.
A short description of data set [11]: Cytotoxicity against human HepG2 cells. Format: toxicity, cell-based.
Data set [12] can be described thus: Protein binding in dog plasma assessed as unbound fraction. It is filed as ADME, cell-free, Canis lupus familiaris.
Data set [13] can be described thus: Protein binding in rat plasma assessed as unbound fraction. It is filed as ADME, cell-free.
Data set [14] can be described thus: Tmax in dog at 5 mg/kg, po. It is filed as ADME, organism-based, Canis lupus familiaris. The note with it: in vivo.
A short description of data set [15]: Tmax in C57BL/6J mouse at 10 mg/kg, po. It is filed as ADME, organism-based. The conditions noted are these: in vivo.
The subject of another data set is Rattus norvegicus. In words: Analgesic activity in sciatic nerved CCI-induced neuropathic pain rat model assessed as reduction in mechanical hyperalgesia at 10 mg/kg, po administered from day 14 post CCI-surgery and measured after 3.5 to 5.5 hrs by Von Frey test. Format: functional, organism-based. The conditions noted are these: time 3.5-5.5 hrs.
The nature of data set [16]: Clearance in rat at 1 mg/kg, iv. Format: ADME, organism-based. The note with it: in vivo.
A short description of data set [17]: Metabolic stability in hepatocytes (unknown origin) assessed as half-life. Format: ADME, cell-based, Hepatocyte.
Data set [18] is described as follows: Half-life in C57BL/6J mouse at 1 mg/kg, iv. Format: ADME, organism-based. The note with it: in vivo.
Data set [19] in a line: Apparent volume of distribution in dog at 1 mg/kg, iv. Format: ADME, organism-based, Canis lupus familiaris. The conditions noted are these: in vivo, read-out: Vz.

Chain of BMP-2-inducible protein kinase (Homo sapiens) (Q9NSY1 whole entry, looked up): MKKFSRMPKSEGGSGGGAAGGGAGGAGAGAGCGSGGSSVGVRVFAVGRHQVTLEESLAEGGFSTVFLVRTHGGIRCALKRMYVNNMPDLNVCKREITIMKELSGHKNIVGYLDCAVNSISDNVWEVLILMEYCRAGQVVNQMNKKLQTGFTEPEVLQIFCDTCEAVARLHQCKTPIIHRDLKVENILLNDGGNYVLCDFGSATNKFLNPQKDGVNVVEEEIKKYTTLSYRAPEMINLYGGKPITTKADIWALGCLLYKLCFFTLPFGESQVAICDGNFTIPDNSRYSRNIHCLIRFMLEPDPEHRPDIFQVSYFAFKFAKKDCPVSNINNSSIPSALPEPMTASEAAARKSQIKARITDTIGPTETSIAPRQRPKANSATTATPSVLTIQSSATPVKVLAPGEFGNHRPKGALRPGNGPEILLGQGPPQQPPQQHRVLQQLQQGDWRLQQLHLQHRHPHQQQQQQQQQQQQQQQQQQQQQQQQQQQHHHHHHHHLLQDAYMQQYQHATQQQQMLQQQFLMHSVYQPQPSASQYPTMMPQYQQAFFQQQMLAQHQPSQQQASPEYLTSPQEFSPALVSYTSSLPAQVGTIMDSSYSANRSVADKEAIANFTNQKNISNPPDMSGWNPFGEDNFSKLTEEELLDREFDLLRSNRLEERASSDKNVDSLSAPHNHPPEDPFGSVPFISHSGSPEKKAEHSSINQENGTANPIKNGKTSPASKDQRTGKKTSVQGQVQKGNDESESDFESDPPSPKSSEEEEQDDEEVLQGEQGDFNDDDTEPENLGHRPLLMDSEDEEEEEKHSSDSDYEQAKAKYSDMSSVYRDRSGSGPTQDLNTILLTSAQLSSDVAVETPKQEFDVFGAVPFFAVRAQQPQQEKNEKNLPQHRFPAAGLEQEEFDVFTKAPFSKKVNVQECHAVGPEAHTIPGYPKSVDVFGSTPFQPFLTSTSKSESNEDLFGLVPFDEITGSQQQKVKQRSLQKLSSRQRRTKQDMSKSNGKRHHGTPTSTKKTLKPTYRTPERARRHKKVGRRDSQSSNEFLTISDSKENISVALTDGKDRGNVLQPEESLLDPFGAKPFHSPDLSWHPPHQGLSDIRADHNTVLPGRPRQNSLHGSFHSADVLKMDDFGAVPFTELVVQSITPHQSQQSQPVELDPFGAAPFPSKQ
Chain of MAP kinase-interacting serine/threonine-protein kinase 2 (Homo sapiens) (Q9HBH9 whole entry, looked up): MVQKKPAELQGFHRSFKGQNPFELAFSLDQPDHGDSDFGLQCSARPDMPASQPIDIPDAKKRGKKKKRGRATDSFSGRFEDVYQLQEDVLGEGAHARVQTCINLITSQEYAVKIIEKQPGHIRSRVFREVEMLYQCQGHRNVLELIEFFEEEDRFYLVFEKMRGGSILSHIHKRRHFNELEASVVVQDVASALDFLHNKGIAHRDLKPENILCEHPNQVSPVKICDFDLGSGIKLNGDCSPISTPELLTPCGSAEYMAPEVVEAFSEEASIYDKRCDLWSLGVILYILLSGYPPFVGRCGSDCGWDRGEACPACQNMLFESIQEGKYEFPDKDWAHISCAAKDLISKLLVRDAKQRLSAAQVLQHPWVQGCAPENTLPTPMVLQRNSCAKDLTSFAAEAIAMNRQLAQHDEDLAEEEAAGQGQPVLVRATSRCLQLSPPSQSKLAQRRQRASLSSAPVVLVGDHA

The term fraction unbound denotes free concentration divided by total concentration. The term inhibition denotes the relative decrease from the control value, in per cent. Read a high inhibition as strong suppression. The AUC(0-t) is exposure summed from dosing to a finite time, without extrapolation to infinity. The low end stands for low exposure, the high end for high exposure. Usually Tmax stands for the time from dosing to the highest level. For orientation: half-life means the time needed for the level to fall by half in the phase considered. One may read the IC50 as the concentration needed to halve the response being measured. Low readings indicate higher potency, high ones lower potency. By clearance is commonly meant a measure of how efficiently the substance is removed, as volume per time. The low end stands for a low capacity for elimination, the high end for a high capacity for elimination. On to `CC(C)C[C@](C)(N)COc1ccc(-c2ccnc(C(F)F)c2)c2nccn12`, for which the fraction unbound in data set [1] was 0.193; in [5], 0.128; in [12], 0.129; in [13] it was 0.185. Besides, the Vd in data set [2] is 25 L/kg; in data set [19], 14 L/kg. Moreover, the figures for the inhibition in data set [3] and in data set [10] were 88% and 39%, respectively. Besides, the AUC(0-t) in data set [4] stood at 4640 ng·h/mL. The Tmax stood at 5.3 h in [6], 1 h in data set [14] and 1.2 h in [15]. For the same compound, the bioavailability in data set [7] turned out to be 118%. Besides, the half-life in data set [8] is 3.07 h; in data set [9] it was 0.717 h; in [17] it was 46.4 h; in [18], 17 h. For the same compound, in data set [11], the IC50 was 51 µM. The Activity result with Rattus norvegicus is “Active; Compound Exhibited Comparable Efficacy To Lx9211”. Moreover, the clearance in data set [16] was 31.7 mL/min/kg.
